These results are taken from PMC11633415, “Investigation of the inhibitory properties of azo-dyes on chorismate synthase from Paracoccidioides brasiliensis” (Journal of Enzyme Inhibition and Medicinal Chemistry, 2024).

Assay [1] concerns the target T1, PbCS (Paracoccidioides brasiliensis, UniProt C1GBW5). Also on record: method as in PMID 30348661. Conditions: PbCS ref 13, cited from earlier work.
In assay [2] the target is T1, PbCS. The arrangement: method as in PMID 30348661.
In assay [3] the target is T2, chorismate synthase (CS) (Trichormus variabilis, UniProt Q3MFM3).
T2 construct: made in house; host or cells: E. coli
T2 sequence (Q3MFM3 whole entry): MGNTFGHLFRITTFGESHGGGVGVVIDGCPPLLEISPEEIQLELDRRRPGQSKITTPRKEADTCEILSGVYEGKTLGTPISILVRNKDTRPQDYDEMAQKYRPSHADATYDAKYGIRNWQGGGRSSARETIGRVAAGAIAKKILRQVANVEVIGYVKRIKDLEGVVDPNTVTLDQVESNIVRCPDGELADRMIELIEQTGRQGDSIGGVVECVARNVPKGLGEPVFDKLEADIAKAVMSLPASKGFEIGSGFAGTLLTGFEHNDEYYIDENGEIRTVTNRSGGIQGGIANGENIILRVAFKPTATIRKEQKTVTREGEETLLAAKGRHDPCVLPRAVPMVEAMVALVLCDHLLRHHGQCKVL
Description: Spectrophotometric titration, CS from Anabaena variabilis. It is filed as binding. Conditions: CS from Anabaena variabilis (cyanobacterium).

Assay [4] addresses T1, PbCS. Description: Inhibition assay, CS reaction coupled with anthranilate synthase reaction. It is filed as biochemical. Conditions: 80 μM EPSP, 4 μM PbCS, 37 °C, Hill fit. Here is the method: The influence of PH011669 on the activity of PbCS was tested by forward coupling the CS reaction with the anthranilate synthase reaction. The final reaction solution contained 80 μM EPSP, 4 μM PbCS, 7 µM YcnD, 20 μM anthranilate synthase, 4 mM MgSO4, 10 mM L-glutamine (L-Gln), 30 mM (NH4)2SO4, 1 mM dithiothreitol (DTT) and different concentrations of the inhibitor (0.1–250 µM). The assay was prepared in 10 mM potassium phosphate at pH 7.6 and pipetted into a 96-well plate. The reaction was started by the addition of 500 µM NADPH. PbCS activity could be studied spectrofluorometrically at 37 °C by following the increase in the fluorescence intensity at 390 nm (λex = 340 nm) for 5 min, which correlates with the amount of anthranilate formed in the course of the reaction. The slopes of the initial velocities were determined and plotted as a function of the log of the corresponding PH011669 concentration (triplicates were determined).
To test the inhibitory effect of PH011669 on the activity of CS, we used a coupled assay involving EPSP, CS, YcnD and anthranilate synthase. Our inhibition assay has been used to determine the ability of a drug to reduce the activity of the enzyme. The resulting IC50 value gives the concentration of a drug required for 50% inhibition of the enzymatic activity. […]

Assay [5] has as its target chorismate synthase (CS) (Candida albicans, UniProt A0A1D8PTK1). Description: Spectrophotometric titration, CS from Candida albicans. The note with it: CS from Candida albicans (fungus). It is filed as binding.
Assay [6] deals with T3, chorismate synthase (CS) (Neurospora crassa, UniProt Q12640).
T3 construct: made in house; host or cells: E. coli
T3 sequence (Q12640 whole entry): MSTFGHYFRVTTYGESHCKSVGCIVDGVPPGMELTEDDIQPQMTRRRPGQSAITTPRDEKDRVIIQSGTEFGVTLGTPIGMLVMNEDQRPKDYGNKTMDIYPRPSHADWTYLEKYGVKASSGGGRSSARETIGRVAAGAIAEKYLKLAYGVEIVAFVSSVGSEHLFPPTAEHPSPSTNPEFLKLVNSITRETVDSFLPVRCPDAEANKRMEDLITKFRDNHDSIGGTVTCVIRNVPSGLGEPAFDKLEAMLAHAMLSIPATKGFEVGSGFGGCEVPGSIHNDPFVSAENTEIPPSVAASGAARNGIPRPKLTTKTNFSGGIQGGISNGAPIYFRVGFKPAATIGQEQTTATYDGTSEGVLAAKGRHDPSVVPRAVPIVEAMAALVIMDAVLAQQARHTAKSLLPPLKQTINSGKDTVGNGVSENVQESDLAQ
The assay can be described thus: Spectrophotometric titration, CS from Neurospora crassa. It is filed as binding. The note with it: CS from Neurospora crassa (fungus). Here is the method:
(§1) For the binding studies, PH011669 was dissolved in 50 mM NaH2PO4 and 150 mM NaCl at pH 8, diluted to a final concentration of approximately 10 µM (A580nm ∼0.25; 800 µL), and transferred to a quartz cuvette (with 800 µL of buffer in the reference cuvette). After recording an initial UV-visible absorption spectrum between 300 and 800 nm, 10 µL aliquots of PbCS (∼55 µM) were added, and spectral changes were monitored after each addition. To quantify the binding affinity of PH011669 to PbCS, we plotted the relative absorption changes at 510 nm as a function of the protein concentration in the cuvette[17].

Assay [7] has as its target T4, chorismate synthase (CS) (Thermotoga maritima, UniProt Q9WYI2).
T4 construct: made in house; host or cells: E. coli
Description: Spectrophotometric titration, CS from Thermotoga marítima. Type of assay: binding.

In assay [8] the target is T5, chorismate synthase (CS) (Capnoides sempervirens, UniProt P27793).
T5 construct: made in house; host or cells: E. coli
T5 sequence (P27793 58-447): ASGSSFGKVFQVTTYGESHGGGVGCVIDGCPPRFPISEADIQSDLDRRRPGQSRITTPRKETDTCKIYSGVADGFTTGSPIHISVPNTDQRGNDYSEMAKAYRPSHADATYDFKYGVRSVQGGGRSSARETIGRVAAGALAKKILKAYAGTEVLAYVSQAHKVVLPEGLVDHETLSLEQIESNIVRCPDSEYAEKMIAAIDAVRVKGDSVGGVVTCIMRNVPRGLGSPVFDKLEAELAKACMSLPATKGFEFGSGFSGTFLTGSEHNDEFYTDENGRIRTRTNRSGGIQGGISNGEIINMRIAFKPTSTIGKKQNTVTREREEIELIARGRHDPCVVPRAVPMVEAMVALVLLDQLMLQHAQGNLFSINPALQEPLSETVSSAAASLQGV
Description: Spectrophotometric titration, CS from Corydalis sempervirens. It is filed as binding. The note with it: CS from Corydalis sempervirens (plant).

For assay [9], the target named is T6, chorismate synthase (CS) (Aquifex aeolicus, UniProt O66493).
T6 construct: made in house; host or cells: E. coli
T6 sequence (O66493 whole entry): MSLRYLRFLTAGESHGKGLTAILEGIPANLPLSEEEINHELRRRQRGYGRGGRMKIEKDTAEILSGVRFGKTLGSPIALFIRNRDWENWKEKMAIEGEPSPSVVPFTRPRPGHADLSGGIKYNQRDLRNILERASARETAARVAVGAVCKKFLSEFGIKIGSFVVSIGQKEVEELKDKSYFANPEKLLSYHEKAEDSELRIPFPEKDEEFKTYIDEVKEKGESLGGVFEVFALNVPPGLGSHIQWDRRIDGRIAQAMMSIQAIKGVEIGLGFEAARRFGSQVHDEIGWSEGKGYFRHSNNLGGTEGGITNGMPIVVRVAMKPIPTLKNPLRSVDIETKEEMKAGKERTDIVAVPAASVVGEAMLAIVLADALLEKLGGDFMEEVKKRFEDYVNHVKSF
The assay can be described thus: Spectrophotometric titration, CS from Aquifex aeolicus. It is filed as binding.

Assay [10] addresses chorismate synthase (CS) (Toxoplasma gondii, UniProt O02607). The assay can be described thus: Spectrophotometric titration, CS from Toxoplasmodium gondii. Type of assay: binding. Conditions: CS from Toxoplasmodium gondii (protozoon).
Assay [11] has as its target chorismate synthase (CS). Description: Spectrophotometric titration, CS from Solanum lycopersicum. Type of assay: binding. The note with it: CS from Solanum lycopersicum (plant).
Assay [12] addresses chorismate synthase (CS) (Tetrahymena thermophila, UniProt Q23FV7). The assay can be described thus: Spectrophotometric titration, CS from Tetrahymena thermophila. It is filed as binding.
For assay [13], the target named is chorismate synthase (CS) (Botrytis cinerea, UniProt A0A384JF70). Description: Spectrophotometric titration, CS from Botrytis fuckeliana. It is filed as binding. Conditions: CS from Botrytis fuckeliana (fungus).
Assay [14] addresses T1, PbCS. Description: Isothermal titration calorimetry (ITC). The note with it: single site binding model, 25 °C, pH 8, triplicates, read-out: dissociation constant by ITC. How it is done: Isothermal titration calorimetry (ITC) was performed on a MicroCal PEAQ-ITC. All ITC experiments were conducted in storage buffer (50 mM NaH2PO4, 150 mM NaCl, pH 8) at 25 °C and a stirring rate of 750 rpm. Titration experiments consisted of 13 injections (first injection: 0.4 µL; duration time: 0.8 s; spacing time: 300 s; 2nd–13th injection: 3 µL; duration time: 6 s; spacing time: 150 s) and were performed in triplicates. The azo-dye PH011669 (500 µM) was loaded into the injection syringe and titrated into the sample cell containing PbCS (25 µM); the reference cell was filled with degassed ddH2O. Dissociation constants were obtained with the MicroCal PEAQ-ITC Analysis Software (Malvern) using the “one set of sites fitting” model.

Assay [15] addresses chorismate synthase (CS) (Methanothermobacter thermautotrophicus, UniProt O26843). Description: Spectrophotometric titration, CS from Methanobacterium thermoautotrophicum. It is filed as binding.
Assay [16] deals with T7, chorismate synthase (CS) (Escherichia coli, UniProt P12008).
T7 construct: made in house; host or cells: E. coli
Description: Spectrophotometric titration, CS from Escherichia coli. Type of assay: binding.

Assay [17] deals with chorismate synthase from Paracoccidioides brasiliensis (PbCS) (Paracoccidioides brasiliensis, UniProt C1GBW5). The assay can be described thus: Spectrophotometric titration / binding assay, PbCS. How it is done: as §1
Sequence of chorismate synthase from Paracoccidioides brasiliensis (PbCS) (C1GBW5 entry or part of it): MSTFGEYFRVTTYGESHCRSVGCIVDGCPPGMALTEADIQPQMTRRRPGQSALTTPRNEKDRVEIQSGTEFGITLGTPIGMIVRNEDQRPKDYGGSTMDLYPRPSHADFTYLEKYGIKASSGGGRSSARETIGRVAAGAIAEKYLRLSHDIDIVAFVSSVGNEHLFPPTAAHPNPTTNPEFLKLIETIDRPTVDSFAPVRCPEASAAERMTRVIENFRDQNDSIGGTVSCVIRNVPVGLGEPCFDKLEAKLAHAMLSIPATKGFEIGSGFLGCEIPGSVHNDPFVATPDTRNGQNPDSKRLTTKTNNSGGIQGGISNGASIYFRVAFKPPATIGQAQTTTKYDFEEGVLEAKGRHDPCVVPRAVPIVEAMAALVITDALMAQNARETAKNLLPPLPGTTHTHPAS
Assay [18] addresses chorismate synthase (CS) (Staphylococcus aureus, UniProt Q2FYG9). The assay can be described thus: Spectrophotometric titration, CS from Staphylococcus aureus. It is filed as binding.
Assay [19] addresses T8, chorismate synthase (CS) (Saccharomyces cerevisiae, UniProt P28777).
T8 construct: made in house; host or cells: E. coli
Description: Spectrophotometric titration, CS from Saccharomyces cerevisiae. Type of assay: binding. Conditions: CS from Saccharomyces cerevisiae (yeast).

The subject of assay [20] is CS from Streptococcus pneumoniae (SpCS). Also on record: method as in PMID 12565943. Conditions: SpCS ref 12; cited from earlier work.
The next assay concerns the target CS from N. crassa. Conditions: CS from N. crassa ref 30; cited from earlier work.
For another assay, the system named is CS. The arrangement: method as in PMID 7559411. The note with it: very slow substrate of CS ref 10; cited from earlier work.
Assay [21] deals with CS from Neurospora crassa. The arrangement: method as in earlier work. Conditions: competitive inhibitor of CS from Neurospora crassa ref 9; cited from earlier work.

Read-outs that look alike come from different tables or passages of the source.

T1 sequence (C1GBW5 entry or part of it): as above
Sequence of chorismate synthase (CS) (Toxoplasma gondii, UniProt O02607) (O02607 whole entry): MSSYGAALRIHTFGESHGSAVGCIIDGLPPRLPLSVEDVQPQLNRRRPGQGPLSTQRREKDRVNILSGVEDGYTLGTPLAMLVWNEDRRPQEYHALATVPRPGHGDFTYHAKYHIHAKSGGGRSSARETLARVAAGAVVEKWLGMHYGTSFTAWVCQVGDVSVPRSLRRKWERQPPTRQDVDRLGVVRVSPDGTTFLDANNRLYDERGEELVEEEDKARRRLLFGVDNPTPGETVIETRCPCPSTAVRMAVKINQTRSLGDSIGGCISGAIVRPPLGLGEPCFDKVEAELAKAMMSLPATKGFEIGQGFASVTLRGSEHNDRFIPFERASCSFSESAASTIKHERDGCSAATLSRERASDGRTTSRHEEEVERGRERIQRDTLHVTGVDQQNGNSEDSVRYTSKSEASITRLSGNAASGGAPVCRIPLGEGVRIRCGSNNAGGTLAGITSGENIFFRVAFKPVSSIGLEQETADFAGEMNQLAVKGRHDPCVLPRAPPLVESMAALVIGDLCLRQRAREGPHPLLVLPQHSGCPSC
Sequence of chorismate synthase (CS) (Methanothermobacter thermautotrophicus, UniProt O26843) (O26843 whole entry): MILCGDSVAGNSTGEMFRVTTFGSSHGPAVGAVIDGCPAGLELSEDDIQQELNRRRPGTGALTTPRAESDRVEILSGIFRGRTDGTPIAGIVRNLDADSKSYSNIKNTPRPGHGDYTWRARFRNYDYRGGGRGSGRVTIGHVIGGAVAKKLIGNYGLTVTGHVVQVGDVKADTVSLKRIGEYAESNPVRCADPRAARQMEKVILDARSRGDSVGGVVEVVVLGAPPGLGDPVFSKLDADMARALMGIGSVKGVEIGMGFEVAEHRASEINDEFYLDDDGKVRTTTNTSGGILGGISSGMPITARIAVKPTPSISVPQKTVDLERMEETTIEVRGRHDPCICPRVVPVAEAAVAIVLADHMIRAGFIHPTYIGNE
T8 sequence (P28777 whole entry): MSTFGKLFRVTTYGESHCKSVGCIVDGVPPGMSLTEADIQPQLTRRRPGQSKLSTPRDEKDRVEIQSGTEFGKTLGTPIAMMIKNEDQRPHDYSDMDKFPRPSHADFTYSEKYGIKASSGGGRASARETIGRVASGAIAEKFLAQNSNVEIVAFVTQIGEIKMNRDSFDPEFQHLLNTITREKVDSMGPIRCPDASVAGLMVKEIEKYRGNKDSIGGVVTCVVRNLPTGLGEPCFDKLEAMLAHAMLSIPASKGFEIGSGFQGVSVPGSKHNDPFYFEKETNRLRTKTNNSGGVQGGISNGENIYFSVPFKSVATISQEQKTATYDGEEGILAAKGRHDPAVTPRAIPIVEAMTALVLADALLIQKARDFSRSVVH
T4 sequence (Q9WYI2 whole entry): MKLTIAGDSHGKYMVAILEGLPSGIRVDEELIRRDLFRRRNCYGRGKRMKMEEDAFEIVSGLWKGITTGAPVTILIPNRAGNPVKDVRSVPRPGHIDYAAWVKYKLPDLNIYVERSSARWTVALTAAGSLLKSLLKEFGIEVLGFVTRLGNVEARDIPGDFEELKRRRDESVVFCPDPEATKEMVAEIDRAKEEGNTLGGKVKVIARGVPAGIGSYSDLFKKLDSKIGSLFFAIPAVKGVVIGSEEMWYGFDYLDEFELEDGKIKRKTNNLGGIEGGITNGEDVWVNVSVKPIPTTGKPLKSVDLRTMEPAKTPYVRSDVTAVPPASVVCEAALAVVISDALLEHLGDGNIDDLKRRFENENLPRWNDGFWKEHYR
Sequence of chorismate synthase (CS) (Tetrahymena thermophila, UniProt Q23FV7) (Q23FV7 entry or part of it): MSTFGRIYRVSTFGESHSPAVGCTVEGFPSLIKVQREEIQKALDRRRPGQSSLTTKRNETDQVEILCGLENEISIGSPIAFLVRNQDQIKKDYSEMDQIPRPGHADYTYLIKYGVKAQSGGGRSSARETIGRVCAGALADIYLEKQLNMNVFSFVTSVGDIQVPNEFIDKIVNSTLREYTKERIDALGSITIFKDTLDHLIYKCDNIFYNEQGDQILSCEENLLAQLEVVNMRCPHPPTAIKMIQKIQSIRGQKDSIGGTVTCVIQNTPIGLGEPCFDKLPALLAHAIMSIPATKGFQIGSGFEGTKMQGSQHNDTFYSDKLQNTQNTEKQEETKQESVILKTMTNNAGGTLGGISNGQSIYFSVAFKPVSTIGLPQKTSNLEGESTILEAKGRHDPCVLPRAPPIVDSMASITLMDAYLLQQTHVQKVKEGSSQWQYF
Sequence of chorismate synthase (CS) (Candida albicans, UniProt A0A1D8PTK1) (A0A1D8PTK1 entry or part of it): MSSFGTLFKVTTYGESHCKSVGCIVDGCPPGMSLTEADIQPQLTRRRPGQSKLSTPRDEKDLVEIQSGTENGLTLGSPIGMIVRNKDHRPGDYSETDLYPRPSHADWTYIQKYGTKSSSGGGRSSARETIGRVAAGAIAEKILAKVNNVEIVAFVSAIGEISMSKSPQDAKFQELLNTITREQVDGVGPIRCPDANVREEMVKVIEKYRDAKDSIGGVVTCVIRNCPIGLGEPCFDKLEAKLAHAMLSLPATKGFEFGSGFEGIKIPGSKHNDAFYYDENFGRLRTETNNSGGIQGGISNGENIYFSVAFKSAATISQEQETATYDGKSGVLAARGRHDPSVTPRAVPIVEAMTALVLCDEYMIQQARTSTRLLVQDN

With `O=[N+]([O-])c1ccc(/N=N/c2c(S(=O)(=O)O)cc3cc(S(=O)(=O)O)ccc3c2O)c([N+](=O)[O-])c1` [CaCS02, 2-(2,4-dinitrophenylazo)-1-hydroxynaphthalene-3,6-disulfonic acid (nitrazine yellow)], the half-inhibitory concentration (IC50) on PbCS [1] (read-out: IC50) is 29 µM. The Kd at PbCS [2] (PbCS ref 13; read-out: dissociation constant; cited from earlier work) is 20 µM.

For the compound `Nc1cc(S(=O)(=O)O)cc2cc(S(=O)(=O)O)c(/N=N/c3cc([N+](=O)[O-])cc(Cl)c3O)c(O)c12` [PH011669, 5-amino-3-[(E)-(3-chloro-2-hydroxy-5-nitrophenyl)diazenyl]-4-hydroxy-2,7-naphthalenedisulfonic acid], the Kd on chorismate synthase (CS) [3] was determined as 1.8 ± 0.1 µM; at chorismate synthase (CS) [5], 4.6 ± 0.7 µM; on chorismate synthase (CS) [6] it was 3.5 ± 0.1 µM; at chorismate synthase (CS) [7], 1.5 µM; on chorismate synthase (CS) [8] it was 1 ± 0.1 µM; at chorismate synthase (CS) [9], 3.2 ± 0.1 µM. For the same compound, the Kd at chorismate synthase (CS) [10] was determined as 1.7 µM; on chorismate synthase (CS) [11], 1.8 ± 0.1 µM; at chorismate synthase (CS) [12], 4.4 ± 0.1 µM; at chorismate synthase (CS) [13] it was 4 ± 0.6 µM; at PbCS [14] it was 3.8 ± 1.8 µM; at chorismate synthase (CS) [15], 2.7 µM. Besides, the Kd at chorismate synthase (CS) [16] is 3.7 ± 1 µM; in [17] (read-out: Kd (dissociation constant), spectrophotometric titration, PbCS), 1.1 µM; on chorismate synthase (CS) [18], 3.7 ± 0.1 µM; at chorismate synthase (CS) [19], 2.4 ± 0.1 µM. Further, inhibition against PbCS [4] was half-maximal at 10 ± 1 µM (IC50). In addition, the “higher affinity than the initial hit” value in [17] (affinity to PbCS relative to initial hit (CaCS02)) was “ca. 20 fold”.

Consider `CCCCCOc1ccc(/C=C2\Oc3c(ccc(O)c3O)C2=O)c(O)c1` [BF2], for which, in [20], the IC50 was 0.22 µM.

In the case of `C=C(OC1CC(C(=O)O)=CC(OP(=O)(O)O)C1O)C(=O)O` (stereo not drawn) [EPSP, 5-enolpyruvylshikimate-3-phosphate], the Kd at CS from N. crassa is 17 µM.

With `CCN(CC)c1ccc(/C=C2\Oc3c(ccc(O)c3O)C2=O)cc1` [BF1], the IC50 in assay [20] is 8 µM.

Regarding `C=C(OC1C(O)C(OP(=O)(O)O)C=C(C(=O)O)[C@@H]1F)C(=O)O` (stereo partly drawn) [6(S)-6-fluoro-EPSP, (6S)-6-fluoro-5-enolpyruvylshikimate-3-phosphate], in the assay on CS, the “slower turnover than EPSP” value is 200 fold.

Turning to `O=C(O)[C@H]1Nc2c(cccc2[N+](=O)[O-])[C@@H]2[C@H](Cl)[C@@H](Sc3ccccc3[N+](=O)[O-])C[C@@H]21` [CP1, (1S,2S,3aS,4S,9bR)-1-chloro-6-nitro-2-(2-nitrophenyl)sulfanyl-2,3,3a,4,5,9b-hexahydro-1H-cyclopenta[c]quinoline-4-carboxylic acid], on PbCS [1], the IC50 is 47 µM. The Kd at PbCS [2] (read-out: dissociation constant; PbCS ref 13; cited from earlier work) was 64 ± 1 µM.

As to `C=C(OC1C(O)C(OP(=O)(O)O)C=C(C(=O)O)[C@H]1F)C(=O)O` (stereo partly drawn) [6(R)-6-fluoro-EPSP, (6R)-6-fluoro-5-enolpyruvylshikimate 3-phosphate], in assay [21], the Ki is 3 ± 0.3 µM.

One may read the IC50 as the concentration that inhibits the measured activity by half. By Ki is commonly meant a dissociation constant, usually derived from enzyme kinetics or from competition with a known ligand.
